Test results taken from US11673910B2, “Macrolides with modified desosamine sugars and uses thereof” (Zikani Therapeutics, Inc., priority 2017, dated 2023).
Converted amounts (≈) assume the structure as drawn.

Experiments:
Type in all cases: cell-based
[1] = system: P. aeruginosa strain MP-3; assay: Broth dilution MIC determination (CLSI) against P. aeruginosa strain MP-3; conditions: Pseudomonas aeruginosa, MP3
Summary of the method: (§1)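 Activity is reported in categories: ≤4 mg/L as "+++", 8 to below 32 mg/L as "++", and 32 mg/L or more as "+". Testing followed CLSI broth dilution procedures.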

S. aureus strain MP-12 = assay: Broth dilution MIC determination (CLSI) against S. aureus strain MP-12; conditions: Staphylococcus aureus, MP12, strain MP-12
Summary of the method: as §1

[2] = system: A. baumannii strain MP-15; assay: Broth dilution MIC determination (CLSI) against A. baumannii strain MP-15; conditions: Acinetobacter baumannii, MP15
Summary of the method: as §1

E. coli strain MP-4 = assay: Broth dilution MIC determination (CLSI) against E. coli strain MP-4; conditions: Escherichia coli, MP4
Summary of the method: as §1

[3] = system: K. pneumoniae strain MP-548; assay: Broth dilution MIC determination (CLSI) against K. pneumoniae strain MP-548; conditions: Klebsiella pneumoniae, MP548
Summary of the method: as §1

Row | SMILES | MIC [1] [µg/mL] | MIC (S. aureus strain MP-12) [µg/mL] | MIC [2] [µg/mL] | MIC (E. coli strain MP-4) [µg/mL] | MIC [3] [µg/mL]
1 | C=CC1CO[C@@]2(C)C[C@@H](C)CN[C@H](C)[C@H]3NC(=O)O[C@]3(C)[C@@H](CC)OC(=O)[C@@]1(C)C(=O)[C@H](C)[C@H]2OC1OC(C)CC(N(C)C)C1O (stereo partly drawn) [Compound 224] | ≥ 32 | ≥ 32 | ≥ 32 | ≥ 32 | ≥ 32
2 | CC[C@H]1OC(=O)C(C)C(=O)[C@H](C)[C@@H](O[C@@H]2OC(CNCc3ccc(F)cc3)CC(N(C)C)C2O)[C@](C)(OC)C[C@@H](C)CN[C@H](C)[C@H]2NC(=O)O[C@@]21C (stereo partly drawn) [Compound 18] | ≥ 32 | ≥ 32 | ≥ 32 | ≤ 4 | 8 to 32 (≈ 10.9 to 43.4 µM)
3 | CC[C@H]1OC(=O)C(C)C(=O)[C@H](C)[C@@H](OC2OC(CNC3CC3)CC(N(C)C)C2O)[C@](C)(OC)C[C@@H](C)CN[C@H](C)[C@H]2NC(=O)O[C@@]21C (stereo partly drawn) [Compound 118, 3-Descladinosyl-3-oxo-6-O-methyl-N9a-desmethyl-11,12-dideoxy-12,11-(oxycarbonylimino)-6′-cyclopropylamino Azithromycin] | ≥ 32 | 8 to 32 (≈ 12 to 47.8 µM) | ≥ 32 | ≤ 4 | ≤ 4
4 | CC[C@H]1OC(=O)C(C)C(=O)[C@H](C)[C@@H](OC2OC(CN3CCCC3)CC(N(C)C)C2O)[C@](C)(OC)C[C@@H](C)CN[C@H](C)[C@H]2NC(=O)O[C@@]21C (stereo partly drawn) [Compound 122, 3-Descladinosyl-3-oxo-6-O-methyl-N9a-desmethyl-11,12-dideoxy-12,11-(oxycarbonylimino)-6′-(1-pyrrolodinyl) Azithromycin] | ≥ 32 | ≥ 32 | ≥ 32 | ≤ 4 | 8 to 32 (≈ 11.7 to 46.9 µM)
5 | CC[C@H]1OC(=O)C(C)C(=O)[C@H](C)[C@@H](OC2OC(C(=O)N(C)C3CC3)CC(N(C)C)C2O)[C@](C)(OC)C[C@@H](C)CN[C@H](C)[C@H]2NC(=O)O[C@@]21C (stereo partly drawn) [Compound 168, 3-Descladinosyl-3-oxo-6-O-methyl-N9a-desmethyl-11,12-dideoxy-12,11-(oxycarbonylimino)-5′-desmethyl-5′-(N,N-cyclopropyl(methyl)carboxamido) Azithromycin] | ≥ 32 | ≥ 32 | ≥ 32 | ≥ 32 | ≥ 32
6 | CC[C@H]1OC(=O)C(C)C(=O)[C@H](C)[C@@H](O[C@@H]2O[C@H](CNC3CC3)CC(N(C)C)[C@H]2O)[C@](C)(OC)C[C@@H](C)CN(C)[C@H](C)[C@H]2NC(=O)O[C@@]21C (stereo partly drawn) [Compound 161, 3-Descladinosyl-3-oxo-6-O-methyl-11,12-dideoxy-12,11-(oxycarbonylimino)-6′-cyclopropylamino Azithromycin] | ≥ 32 | 8 to 32 (≈ 11.7 to 46.9 µM) | 8 to 32 (≈ 11.7 to 46.9 µM) | ≤ 4 | ≤ 4
7 | CC[C@H]1OC(=O)C(C)C(=O)[C@H](C)[C@@H](O[C@@H]2OC(CN[C@@H](C)c3ccc(F)cc3)CC(N(C)C)C2O)[C@](C)(OC)C[C@@H](C)CN[C@H](C)[C@H]2NC(=O)O[C@@]21C (stereo partly drawn) [Compound 32] | ≥ 32 | ≥ 32 | ≥ 32 | ≤ 4 | ≥ 32
8 | CC[C@H]1OC(=O)C(C)C(=O)[C@H](C)[C@@H](OC2OC(CN(C)CC3CC3)CC(N(C)C)C2O)[C@](C)(OC)C[C@@H](C)CN[C@H](C)[C@H]2NC(=O)O[C@@]21C (stereo partly drawn) [Compound 153, 3-Descladinosyl-3-oxo-6-O-methyl-N9a-desmethyl-11,12-dideoxy-12,11-(oxycarbonylimino)-6′-methylcyclopropylmethylamino Azithromycin] | ≥ 32 | ≥ 32 | ≥ 32 | ≤ 4 | ≥ 32
9 | CC[C@H]1OC(=O)C(C)C(=O)[C@H](C)[C@@H](O[C@@H]2OC(CNCc3cccc(-c4cncnc4)c3)CC(N(C)C)C2O)[C@](C)(OC)C[C@@H](C)CN[C@H](C)[C@H]2NC(=O)O[C@@]21C (stereo partly drawn) [Compound 20] | ≥ 32 | ≥ 32 | ≥ 32 | ≤ 4 | ≥ 32
10 | CC[C@H]1OC(=O)C(C)C(=O)[C@H](C)[C@@H](OC2OC(CN3CCN(C)CC3)CC(N(C)C)C2O)[C@](C)(OC)C[C@@H](C)CN[C@H](C)[C@H]2NC(=O)O[C@@]21C (stereo partly drawn) [Compound 126, 3-Descladinosyl-3-oxo-6-O-methyl-N9a-desmethyl-11,12-dideoxy-12,11-(oxycarbonylimino)-6′-(1-(4-methyl)-piperazinyl) Azithromycin] | ≥ 32 | ≥ 32 | ≥ 32 | ≤ 4 | 8 to 32 (≈ 11.2 to 44.9 µM)
11 | CC[C@@H]1CC(N(C)C)[C@@H](O)[C@H](O[C@@H]2[C@@H](C)C(=O)C(C)C(=O)O[C@H](CC)[C@@]3(C)OC(=O)N[C@@H]3[C@@H](C)NC[C@H](C)C[C@@]2(C)OC)O1 (stereo partly drawn) [Compound 182, 3-Descladinosyl-3-oxo-6-O-methyl-N9a-desmethyl-11,12-dideoxy-12,11-(oxycarbonylimino)-5′-desmethyl-5′-ethyl Azithromycin] | ≥ 32 | 8 to 32 (≈ 12.7 to 51 µM) | 8 to 32 (≈ 12.7 to 51 µM) | ≤ 4 | 8 to 32 (≈ 12.7 to 51 µM)
12 | CC[C@H]1OC(=O)C(C)C(=O)[C@H](C)[C@@H](OC2OC(CN(C)C3CC3)CC(N(C)C)C2O)[C@](C)(OC)C[C@@H](C)CN[C@H](C)[C@H]2NC(=O)O[C@@]21C (stereo partly drawn) [Compound 129, 3-Descladinosyl-3-oxo-6-O-methyl-N9a-desmethyl-11,12-dideoxy-12,11-(oxycarbonylimino)-6′-(N-methylcyclopropylamino) Azithromycin] | ≥ 32 | 8 to 32 (≈ 11.7 to 46.9 µM) | 8 to 32 (≈ 11.7 to 46.9 µM) | ≤ 4 | 8 to 32 (≈ 11.7 to 46.9 µM)
13 | CC[C@H]1OC(=O)[C@@]2(C)CCOC(C)(C[C@@H](C)CN(C)[C@H](C)[C@H]3NC(=O)O[C@@]31C)[C@H](O[C@@H]1O[C@H](CN(C)C3CC3)C[C@H](N(C)C)[C@H]1O)[C@@H](C)C2=O [Compound 209] | ≥ 32 | ≤ 4 | 8 to 32 (≈ 11.3 to 45.1 µM) | ≤ 4 | ≤ 4
14 | CC[C@H]1OC(=O)[C@@]2(C)CCOC(C)(C[C@@H](C)CN[C@H](C)[C@H]3NC(=O)O[C@@]31C)[C@H](O[C@@H]1OC(CNC(C)C)CC(N(C)C)C1O)[C@@H](C)C2=O (stereo partly drawn) [Compound 213] | ≥ 32 | ≤ 4 | ≥ 32 | ≤ 4 | ≤ 4
15 | CO[C@]1(C)C[C@@H](C)CN[C@H](C)[C@H]2NC(=O)O[C@]2(C)[C@@H](C)OC(=O)C(C)C(=O)[C@H](C)[C@H]1OC1OC(CN(C)C2CCC2)CC(N(C)C)C1O (stereo partly drawn) [Compound 155, 3-Descladinosyl-3-oxo-6-O-methyl-N9a-desmethyl-11,12-dideoxy-12,11-(oxycarbonylimino)-6′-methylcyclobutylamino-13-methyl Azithromycin] | ≥ 32 | ≥ 32 | 8 to 32 (≈ 11.7 to 46.9 µM) | ≤ 4 | 8 to 32 (≈ 11.7 to 46.9 µM)
16 | CC[C@H]1OC(=O)C(C)C(=O)[C@H](C)[C@@H](O[C@@H]2O[C@H](CNC(C)C)CC(N(C)C)[C@H]2O)[C@](C)(OC)C[C@@H](C)CN(C)[C@H](C)[C@H]2NC(=O)O[C@@]21C (stereo partly drawn) [Compound 164, 3-Descladinosyl-3-oxo-6-O-methyl-11,12-dideoxy-12,11-(oxycarbonylimino)-6′-isopropylamino Azithromycin] | ≥ 32 | ≥ 32 | ≥ 32 | ≤ 4 | 8 to 32 (≈ 11.7 to 46.7 µM)
17 | CC[C@H]1OC(=O)C(C)C(=O)[C@H](C)[C@@H](OC2OC(CNCC(=O)OC)CC(N(C)C)C2O)[C@](C)(OC)C[C@@H](C)CN[C@H](C)[C@H]2NC(=O)O[C@@]21C (stereo partly drawn) [Compound 127, 3-Descladinosyl-3-oxo-6-O-methyl-N9a-desmethyl-11,12-dideoxy-12,11-(oxycarbonylimino)-6′-(methyl aminomethylcarboxylate) Azithromycin] | ≥ 32 | ≥ 32 | ≥ 32 | ≤ 4 | 8 to 32 (≈ 11.4 to 45.7 µM)
18 | CC[C@H]1OC(=O)C(C)C(=O)[C@H](C)[C@@H](OC2OC(CN(C)CC)CC(N(C)C)C2O)[C@](C)(OC)C[C@@H](C)CN[C@H](C)[C@H]2NC(=O)O[C@@]21C (stereo partly drawn) [Compound 151, 3-Descladinosyl-3-oxo-6-O-methyl-N9a-desmethyl-11,12-dideoxy-12,11-(oxycarbonylimino)-6′-methylethylamino Azithromycin] | ≥ 32 | ≥ 32 | ≥ 32 | ≤ 4 | 8 to 32 (≈ 11.9 to 47.7 µM)
19 | CC[C@H]1OC(=O)C(C)(C)C(=O)[C@H](C)[C@@H](O[C@@H]2O[C@H](CNC3CC3)CC(N(C)C)[C@H]2O)[C@](C)(OC)C[C@@H](C)CN(C)[C@H](C)[C@H]2NC(=O)O[C@@]21C (stereo partly drawn) [Compound 190, 2-Methyl-3-descladinosyl-3-oxo-6-O-methyl-N9a-desmethyl-11,12-dideoxy-12,11-(oxycarbonylimino)-6′-cylcopropylamino Azithromycin] | ≥ 32 | ≥ 32 | ≥ 32 | ≥ 32 | ≥ 32
20 | CC[C@H]1OC(=O)C(C)C(=O)[C@H](C)[C@@H](O[C@@H]2OC(CNCc3ccc4nccnc4c3)CC(N(C)C)C2O)[C@](C)(OC)C[C@@H](C)CN[C@H](C)[C@H]2NC(=O)O[C@@]21C (stereo partly drawn) [Compound 23] | ≥ 32 | ≥ 32 | ≥ 32 | ≤ 4 | ≥ 32
21 | CC[C@H]1OC(=O)C(C)C(=O)[C@H](C)[C@@H](O[C@@H]2O[C@H](CN(C)C(=O)CN(C)C3CC3)CC(N(C)C)[C@H]2O)[C@](C)(OC)C[C@@H](C)CN[C@H](C)[C@H]2NC(=O)O[C@@]21C (stereo partly drawn) [Compound 172, 3-Descladinosyl-3-oxo-6-O-methyl-N9a-desmethyl-11,12-dideoxy-12,11-(oxycarbonylimino)-6′-(N-methyl-N-(2-cyclopropylamino)acetylamino) Azithromycin] | ≥ 32 | ≥ 32 | ≥ 32 | ≥ 32 | ≥ 32
